# Source: patent US12115151B2, “Method of treatment of p53 WT tumors” (Dana-Farber Cancer Institute, Inc., priority 2018, dated 2024)
# Several values for one entry are separate records, joined by “and”; a condition that tells them apart may be missing. Identical values can stand only once. Entries after “also recorded” stand apart in the source; their conditions may differ.
# Experiments:
# [1] = molecular target: T1, CK1α (Homo sapiens, UniProt P48729); assay: Western blot of CK1α protein levels in MKL-1 cells; assay type: cell-based; conditions: IMiD 10 μM
# Description: Confluent cultures of cells were washed with ice-cold phosphate-buffered saline (PBS) and resuspended in EBC lysis buffer (50 mM Tris, pH 8.0, 150 mM NaCl, 0.5% NP-40, 1:10,000-mercaptoethanol, 0.5 mM EDTA) for 10 min on ice and then centrifuged. Clarified lysates were incubated overnight with antibodies and magnetic protein A/G beads (PureProteome magnetic beads, EMD Millipore). […] Quantitative western blotting was performed using the Odyssey near-infrared system (Li-Cor Biotechnology).
# [2] = molecular target: T1, CK1α; assay: Western blot of CK1α in UISO cells; assay type: cell-based; conditions: lenalidomide 10 μM, 24 hours
# Excerpt: Of note, UISO has less MDM2 and MDM4 proteins than MKL-1.
# [3] = test system: MKL-1 MCC cells; assay: XTT cell viability assay and synergy testing, MKL-1 cells; assay type: cell-based; conditions: 96 hours; for Response-rep1 / Response-rep2: HDM201 0 nM; for relative viability (XTT), untreated = 1: combinations with a fixed amount of Lenalidomide (5 uM), replicate columns; for Response: relative viability vs untreated
# Description: Cell viability assays were performed using Cell Proliferation Kit II (XTT) (Roche) according to the manufacturer's instructions and BH3 profiling was described in Pallis et al. (36). Synergy testing was performed using Compusyn and Synergyfinder (28, 29).
# The XTT assay was performed to determine the relative viability (% response) normalized to untreated cells.
# [4] = test system: p53; assay: Western blot of p53 activation in MKL-1 cells; assay type: cell-based; conditions: 24-40 hours
# Description: (§1) Confluent cultures of cells were washed with ice-cold phosphate-buffered saline (PBS) and resuspended in EBC lysis buffer (50 mM Tris, pH 8.0, 150 mM NaCl, 0.5% NP-40, 1:10,000-mercaptoethanol, 0.5 mM EDTA) for 10 min on ice and then centrifuged. Clarified lysates were incubated overnight with antibodies and magnetic protein A/G beads (PureProteome magnetic beads, EMD Millipore). […] Mouse monoclonal antibodies Ab3 and Ab5 against MCV T antigens were generated against MCV large T antigen residues 1 to 260 and produced as a glutathione S-transferase (GST) fusion protein in bacteria (17). Quantitative western blotting was performed using the Odyssey near-infrared system (Li-Cor Biotechnology).
# [5] = test system: MKL-1 MCC xenografts; assay: Xenograft efficacy study; conditions: individual animals, oral daily, HDM201 40 mg/kg and/or lenalidomide 50 mg/kg; for Tumor Volume Change, Abs Ch = T − T0: tumor volumes in mm3
# Description: The study was terminated when the tumor volume reached the maximum permissible size of 2000 mm3.
# [6] = test system: MDM4 binding to p53; assay: Immunoprecipitation of MDM4, p53 and CK1α from MKL-1 lysates; assay type: cell-based; conditions: MKL-1 cells; nutlin-3 5 μM, lenalidomide 10 μM, 40 hours
# Description: as §1
# T1 sequence (P48729 whole entry): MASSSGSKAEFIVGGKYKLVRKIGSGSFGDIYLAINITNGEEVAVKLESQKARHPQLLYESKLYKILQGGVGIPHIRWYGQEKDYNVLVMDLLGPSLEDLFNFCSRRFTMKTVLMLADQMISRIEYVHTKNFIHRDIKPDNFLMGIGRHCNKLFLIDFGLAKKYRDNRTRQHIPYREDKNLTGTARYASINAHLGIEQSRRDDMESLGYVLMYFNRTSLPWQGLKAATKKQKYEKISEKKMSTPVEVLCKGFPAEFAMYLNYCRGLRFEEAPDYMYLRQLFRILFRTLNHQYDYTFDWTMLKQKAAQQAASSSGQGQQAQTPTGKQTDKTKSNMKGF
smiles,measurement,setting,value
"Nc1cccc2c1CN(C1CCC(=O)NC1=O)C2=O (racemic) [Lenalidomide, (RS)-3-(7-Amino-3-oxo-1H-isoindol-2-yl)piperidin-2,6-dion]",CK1α protein levels,[1],reduces CK1α protein rapidly; also recorded: decreases CK1α protein levels
same,CK1α protein levels,[1]; listed as lenalidomide,levels rapidly decreased
same,CK1α levels,[2],depletes CK1α
same,CK1α levels,[2]; listed as lenalidomide,decreased the CK1α levels
same,Response-rep1,[3]; Lenalidomide 5000 nM,98.9539%
same,Response-rep2,[3]; Lenalidomide 5000 nM,97.73%
same,Response-rep1,[3]; Lenalidomide 10000 nM,83.3296%
same,Response-rep2,[3]; Lenalidomide 10000 nM,76.26%
same,Response-rep1,[3]; Lenalidomide 15000 nM,69.78%
same,Response-rep2,[3]; Lenalidomide 15000 nM,67.82%
same,Response-rep1,[3]; Lenalidomide 18000 nM,25.1812%
same,Response-rep2,[3]; Lenalidomide 18000 nM,49.26%
same,"relative viability (XTT), untreated = 1",[3]; Nutlin-3 or RG7388 level 25 (unit not given),1.143 and 0.8845 and 1.022
same,"relative viability (XTT), untreated = 1",[3]; Nutlin-3 or RG7388 level 50 (unit not given),1.089 and 0.9384 and 1.081
same,"relative viability (XTT), untreated = 1",[3]; Nutlin-3 or RG7388 level 75 (unit not given),1.027 and 1.061 and 1.086
same,"relative viability (XTT), untreated = 1",[3]; Nutlin-3 or RG7388 level 90 (unit not given),1.011 and 0.945 and 0.9521
same,Response,[3]; Lenalidomide 5000 nM alone,104.85%
same,Response,[3]; Lenalidomide 10000 nM alone,105.06%
same,Response,[3]; Lenalidomide 15000 nM alone,107.06%
same,Response,[3]; Lenalidomide 18000 nM alone,100.64%
same,"p53 activation (p53, P-p53, Ac-p53, p21, PUMA levels)",[4],modest positive effect on p53 levels
same,"Tumor Volume Change, % Ch = (T − T0)/T0",[5]; day 0,0.00%
same,"Tumor Volume Change, Abs Ch = T − T0",[5]; day 0,0.00
same,"Tumor Volume Change, % Ch = (T − T0)/T0",[5]; day 4,74.88% and 101.33% and 102.10% and 99.96% and 150.37% and 52.58% and 63.66% and 71.12%
same,"Tumor Volume Change, Abs Ch = T − T0",[5]; day 4,144.53 and 151.67 and 182.72 and 171.42 and 196.53 and 107.98 and 82.85 and 113.80
same,"Tumor Volume Change, % Ch = (T − T0)/T0",[5]; day 7,172.14% and 170.30% and 232.85% and 199.00% and 277.21% and 108.30% and 219.88% and 209.85%
same,"Tumor Volume Change, Abs Ch = T − T0",[5]; day 7,332.29 and 254.90 and 416.69 and 341.29 and 362.30 and 222.38 and 286.16 and 335.77
same,"Tumor Volume Change, % Ch = (T − T0)/T0",[5]; day 11,532.35% and 513.08% and 584.49% and 475.00% and 680.10% and 321.83% and 431.10% and 501.46%
same,"Tumor Volume Change, Abs Ch = T − T0",[5]; day 11,1027.58 and 768.00 and 1045.97 and 814.62 and 888.86 and 660.89 and 561.06 and 802.36
same,"Tumor Volume Change, % Ch = (T − T0)/T0",[5]; day 14,811.07% and 861.89% and 936.62% and 702.42% and 1182.50% and 538.29% and 804.69% and 779.36%
same,"Tumor Volume Change, Abs Ch = T − T0",[5]; day 14,1565.59 and 1290.11 and 1676.13 and 1204.65 and 1545.48 and 1105.37 and 1047.26 and 1246.99
same,"Tumor Volume Change, % Ch = (T − T0)/T0",[5]; day 18,1406.04% and 1123.01% and 1595.67% and 1146.29% and 1544.08% and 774.41% and 1719.65% and 1318.82%
same,"Tumor Volume Change, Abs Ch = T − T0",[5]; day 18,2714.05 and 1680.96 and 2855.54 and 1965.88 and 2018.05 and 1590.25 and 2238.02 and 2110.15
same,MDM4 binding to p53 (co-immunoprecipitation),[6],reduces MDM4 binding to p53
